Laboratory results from PMC9389804 (Journal of Hematology & Oncology, 2022).

Test: safety assessments (adverse events, NCI CTCAE)
Conditions: AE resulting in dose interruption
Method: Adverse events were assessed continuously and graded according to NCI CTCAE v5.0.18. Complete blood count with differential, serum chemistries, and physical examinations were performed before the study; weekly during Cycles 1 and 2; on alternate weeks in Cycles 3 and 4; and monthly thereafter.

Cc1ccc(C(=O)Nc2ccc(CN3CCN(C)CC3)c(C(F)(F)F)c2)cc1C#Cc1cnc2[nH]ncc2c1 [olverembatinib]
Acute myocardial infarction (Accelerated phase n=38): 0 n (%) | Anal abscess (Accelerated phase n=38): 1 (2.6) n (%) | Anemia (Accelerated phase n=38): 5 (13.2) n (%) | Atrial fibrillation (Accelerated phase n=38): 1 (2.6) n (%) | Atrial septal defect (Accelerated phase n=38): 0 n (%) | Chest pain (Accelerated phase n=38): 0 n (%) | Cholecystitis acute (Accelerated phase n=38): 0 n (%) | Cholelithiasis (Accelerated phase n=38): 0 n (%) | Febrile neutropenia (Accelerated phase n=38): 0 n (%) | Glaucoma (Accelerated phase n=38): 0 n (%) | Hematologic (Accelerated phase n=38): 22 (57.9) n (%) | Hemorrhoids (Accelerated phase n=38): 0 n (%) | Hepatocellular injury (Accelerated phase n=38): 1 (2.6) n (%) | Hyperbilirubinaemia (Accelerated phase n=38): 0 n (%) | Hyperglycaemia (Accelerated phase n=38): 0 n (%) | Hyperkalemia (Accelerated phase n=38): 1 (2.6) n (%) | Hypertriglyceridaemia (Accelerated phase n=38): 1 (2.6) n (%) | Hyperuricaemia (Accelerated phase n=38): 0 n (%) | Hypocalcemia (Accelerated phase n=38): 0 n (%) | Hypoesthesia (Accelerated phase n=38): 0 n (%) | Hypokalemia (Accelerated phase n=38): 2 (5.3) n (%) | Hyponatremia (Accelerated phase n=38): 0 n (%) | Increased alanine aminotransferase (Accelerated phase n=38): 1 (2.6) n (%) | Increased amylase (Accelerated phase n=38): 0 n (%) | Increased aspartate aminotransferase (Accelerated phase n=38): 1 (2.6) n (%) | Increased creatine phosphokinase (Accelerated phase n=38): 1 (2.6) n (%) | Increased pulmonary arterial pressure (Accelerated phase n=38): 0 n (%) | Increased γ-glutamyl transferase (Accelerated phase n=38): 0 n (%) | Influenza like illness (Accelerated phase n=38): 0 n (%) | Iridocyclitis (Accelerated phase n=38): 1 (2.6) n (%) | Lacunar infarction (Accelerated phase n=38): 0 n (%) | Leukopenia (Accelerated phase n=38): 5 (13.2) n (%) | Liver disorder (Accelerated phase n=38): 0 n (%) | Musculoskeletal pain (Accelerated phase n=38): 1 (2.6) n (%) | Myocardial strain (Accelerated phase n=38): 0 n (%) | Neutropenia (Accelerated phase n=38): 4 (10.5) n (%) | Nonhematologic (Accelerated phase n=38): 14 (36.8) n (%) | Pain (Accelerated phase n=38): 0 n (%) | Pain in extremity (Accelerated phase n=38): 0 n (%) | Peripheral swelling (Accelerated phase n=38): 0 n (%) | Pneumonia (Accelerated phase n=38): 0 n (%) | Proteinuria (Accelerated phase n=38): 0 n (%) | Pulmonary arterial hypertension (Accelerated phase n=38): 0 n (%) | Pulmonary tuberculosis (Accelerated phase n=38): 1 (2.6) n (%) | Pyrexia (Accelerated phase n=38): 2 (5.3) n (%) | Rash (Accelerated phase n=38): 1 (2.6) n (%) | Refraction disorder (Accelerated phase n=38): 0 n (%) | Sinus bradycardia (Accelerated phase n=38): 0 n (%) | Sinus tachycardia (Accelerated phase n=38): 1 (2.6) n (%) | Skin mass (Accelerated phase n=38): 0 n (%) | Superior mesenteric artery syndrome (Accelerated phase n=38): 0 n (%) | Supraventricular extrasystoles (Accelerated phase n=38): 1 (2.6) n (%) | Swelling (Accelerated phase n=38): 0 n (%) | Thrombocytopenia (Accelerated phase n=38): 17 (44.7) n (%) | Upper-respiratory-tract infection (Accelerated phase n=38): 1 (2.6) n (%) | Urinary sediment present (Accelerated phase n=38): 0 n (%) | Acute myocardial infarction (Chronic phase n=127): 1 (0.8) n (%) | Anal abscess (Chronic phase n=127): 0 n (%) | Anemia (Chronic phase n=127): 3 (2.4) n (%) | Atrial fibrillation (Chronic phase n=127): 1 (0.8) n (%) | Atrial septal defect (Chronic phase n=127): 1 (0.8) n (%) | Chest pain (Chronic phase n=127): 1 (0.8) n (%) | Cholecystitis acute (Chronic phase n=127): 1 (0.8) n (%) | Cholelithiasis (Chronic phase n=127): 1 (0.8) n (%) | Febrile neutropenia (Chronic phase n=127): 1 (0.8) n (%) | Glaucoma (Chronic phase n=127): 1 (0.8) n (%) | Hematologic (Chronic phase n=127): 44 (34.6) n (%) | Hemorrhoids (Chronic phase n=127): 1 (0.8) n (%) | Hepatocellular injury (Chronic phase n=127): 0 n (%) | Hyperbilirubinaemia (Chronic phase n=127): 2 (1.6) n (%) | Hyperglycaemia (Chronic phase n=127): 1 (0.8) n (%) | Hyperkalemia (Chronic phase n=127): 0 n (%) | Hypertriglyceridaemia (Chronic phase n=127): 3 (2.4) n (%) | Hyperuricaemia (Chronic phase n=127): 1 (0.8) n (%) | Hypocalcemia (Chronic phase n=127): 3 (2.4) n (%) | Hypoesthesia (Chronic phase n=127): 1 (0.8) n (%) | Hypokalemia (Chronic phase n=127): 0 n (%) | Hyponatremia (Chronic phase n=127): 1 (0.8) n (%) | Increased alanine aminotransferase (Chronic phase n=127): 3 (2.4) n (%) | Increased amylase (Chronic phase n=127): 1 (0.8) n (%) | Increased aspartate aminotransferase (Chronic phase n=127): 2 (1.6) n (%) | Increased creatine phosphokinase (Chronic phase n=127): 3 (2.4) n (%) | Increased pulmonary arterial pressure (Chronic phase n=127): 1 (0.8) n (%) | Increased γ-glutamyl transferase (Chronic phase n=127): 1 (0.8) n (%) | Influenza like illness (Chronic phase n=127): 1 (0.8) n (%) | Iridocyclitis (Chronic phase n=127): 0 n (%) | Lacunar infarction (Chronic phase n=127): 1 (0.8) n (%) | Leukopenia (Chronic phase n=127): 4 (3.1) n (%) | Liver disorder (Chronic phase n=127): 1 (0.8) n (%) | Musculoskeletal pain (Chronic phase n=127): 0 n (%) | Myocardial strain (Chronic phase n=127): 1 (0.8) n (%) | Neutropenia (Chronic phase n=127): 1 (0.8) n (%) | Nonhematologic (Chronic phase n=127): 34 (26.8) n (%) | Pain (Chronic phase n=127): 1 (0.8) n (%) | Pain in extremity (Chronic phase n=127): 1 (0.8) n (%) | Pericardial effusion (Chronic phase n=127): 0 n (%) | Peripheral swelling (Chronic phase n=127): 1 (0.8) n (%) | Pneumonia (Chronic phase n=127): 2 (1.6) n (%) | Proteinuria (Chronic phase n=127): 1 (0.8) n (%) | Pulmonary arterial hypertension (Chronic phase n=127): 1 (0.8) n (%) | Pulmonary tuberculosis (Chronic phase n=127): 0 n (%) | Pyrexia (Chronic phase n=127): 1 (0.8) n (%) | Rash (Chronic phase n=127): 0 n (%) | Refraction disorder (Chronic phase n=127): 1 (0.8) n (%) | Sinus bradycardia (Chronic phase n=127): 1 (0.8) n (%) | Sinus tachycardia (Chronic phase n=127): 1 (0.8) n (%) | Skin mass (Chronic phase n=127): 1 (0.8) n (%) | Superior mesenteric artery syndrome (Chronic phase n=127): 1 (0.8) n (%) | Supraventricular extrasystoles (Chronic phase n=127): 0 n (%) | Swelling (Chronic phase n=127): 1 (0.8) n (%) | Thrombocytopenia (Chronic phase n=127): 42 (33.1) n (%) | Upper-respiratory-tract infection (Chronic phase n=127): 1 (0.8) n (%) | Urinary sediment present (Chronic phase n=127): 1 (0.8) n (%) | Acute myocardial infarction (Total n=165): 1 (0.6) n (%) | Anal abscess (Total n=165): 1 (0.6) n (%) | Anemia (Total n=165): 8 (4.8) n (%) | Atrial fibrillation (Total n=165): 2 (1.2) n (%) | Atrial septal defect (Total n=165): 1 (0.6) n (%) | Chest pain (Total n=165): 1 (0.6) n (%) | Cholecystitis acute (Total n=165): 1 (0.6) n (%) | Cholelithiasis (Total n=165): 1 (0.6) n (%) | Febrile neutropenia (Total n=165): 1 (0.6) n (%) | Glaucoma (Total n=165): 1 (0.6) n (%) | Hematologic (Total n=165): 66 (40.0) n (%) | Hemorrhoids (Total n=165): 1 (0.6) n (%) | Hepatocellular injury (Total n=165): 1 (0.6) n (%) | Hyperbilirubinaemia (Total n=165): 2 (1.2) n (%) | Hyperglycaemia (Total n=165): 1 (0.6) n (%) | Hyperkalemia (Total n=165): 1 (0.6) n (%) | Hypertriglyceridaemia (Total n=165): 4 (2.4) n (%) | Hyperuricaemia (Total n=165): 1 (0.6) n (%) | Hypocalcemia (Total n=165): 3 (1.8) n (%) | Hypoesthesia (Total n=165): 1 (0.6) n (%) | Hypokalemia (Total n=165): 2 (1.2) n (%) | Hyponatremia (Total n=165): 1 (0.6) n (%) | Increased alanine aminotransferase (Total n=165): 4 (2.4) n (%) | Increased amylase (Total n=165): 1 (0.6) n (%) | Increased aspartate aminotransferase (Total n=165): 3 (1.8) n (%) | Increased creatine phosphokinase (Total n=165): 4 (2.4) n (%) | Increased pulmonary arterial pressure (Total n=165): 1 (0.6) n (%) | Increased γ-glutamyl transferase (Total n=165): 1 (0.6) n (%) | Influenza like illness (Total n=165): 1 (0.6) n (%) | Iridocyclitis (Total n=165): 1 (0.6) n (%) | Lacunar infarction (Total n=165): 1 (0.6) n (%) | Leukopenia (Total n=165): 9 (5.5) n (%) | Liver disorder (Total n=165): 1 (0.6) n (%)
